From article PMC7522027 (Disease Models & Mechanisms, 2020)

Assays:
[1] = molecular target: T1, anaplastic lymphoma kinase (ALK wt, GST-HIS-tag) (Homo sapiens, UniProt Q9UM73); experiment: radiometric protein kinase assay, anaplastic lymphoma kinase; assay type: biochemical; conditions: Fig. 7A
T1 construct: GST; His; purchased ProQinase GmbH (Freiburg, Germany); host or cells: bacteria (so in the source)
Procedure: (§2) IC50 values were calculated using Prism 5.04 for Windows (GraphPad, San Diego, CA, USA; www.graphpad.com). The mathematical model used was ‘Sigmoidal response (variable slope)’ with parameters ‘top’ fixed at 100% and ‘bottom’ at 0%. The fitting method used was a least-squares fit.

caALK6 = experiment: caALK6-induced SMAD1/5 phosphorylation in HEK 293T cells; assay type: cell-based, human; conditions: cercosporamide 1-10 µM, LDN193189 200 nM
Excerpt: (§1) HepG2 or HEK 293T cells were lysed in Laemmli sample buffer. Proteins were separated by sodium dodecyl sulfate polyacrylamide gel electrophoresis (SDS-PAGE) and transferred onto […] polyvinylidene difluoride (PVDF) membrane (IPVH00010, Merck Millipore). Membranes were blocked using 5% non-fat dry milk in Tris-buffered saline with 0.1% Tween 20 (655204, Merck Millipore) and probed with the respective primary and secondary antibodies. The signal was detected using Clarity™ Western ECL Substrate (1705060, Bio-Rad) and ChemiDoc Imaging System (17001402, Bio-Rad). The antibodies used for immunoblotting were raised against the following proteins: phospho-SMAD1/5/8 ([Persson et al., 1998]; 1:1000), SMAD1 (Cell Signaling Technology, #6944; 1:1000), GAPDH (Merck Millipore, #G8795; 1:5000) and hemagglutinin (HA; Roche, #12CA5; 1:1000).
For experiments with the caALK type I receptor constructs, HEK 293T cells were seeded in 24-well plates at ∼90% confluency and transfected with the DNA expression constructs in the presence of PEI. Thirty hours after transfection, the cells were added to serum-starved medium and treated with compounds for 16 h (overnight). Subsequently, the cells were washed with PBS and lysed in Laemmli sample buffer. […]

[2] = test system: BMP6-induced SMAD1/5 phosphorylation; experiment: BMP6-induced SMAD1/5 phosphorylation in HepG2 cells (immunoblot); assay type: cell-based, human; conditions: HepG2, BMP6 50 ng/ml; higher concentrations
Procedure: For BMP stimulation, the HepG2 cells (∼50% confluency) were starved on serum-free medium for 6 h. Subsequently, prior to the addition of BMP ligands, the cells were treated with compound for 30 min. Next, the cells were stimulated with BMP2 (50 ng/ml) or BMP6 (50 ng/ml) for 45 min. The cells were then washed with PBS and lysed in Laemmli sample buffer for western blot analysis.
as §1

TGFB-R1 (ALK5) = molecular target: T2, TGFB-R1 (ALK5) (Homo sapiens, UniProt P36897); experiment: radiometric protein kinase assay, ALK5; assay type: biochemical; conditions: [ATP] = 1 μM; Fig. 7K
T2 construct: purchased ProQinase GmbH (Freiburg, Germany); host or cells: bacteria (so in the source)
T2 sequence (P36897 34-503): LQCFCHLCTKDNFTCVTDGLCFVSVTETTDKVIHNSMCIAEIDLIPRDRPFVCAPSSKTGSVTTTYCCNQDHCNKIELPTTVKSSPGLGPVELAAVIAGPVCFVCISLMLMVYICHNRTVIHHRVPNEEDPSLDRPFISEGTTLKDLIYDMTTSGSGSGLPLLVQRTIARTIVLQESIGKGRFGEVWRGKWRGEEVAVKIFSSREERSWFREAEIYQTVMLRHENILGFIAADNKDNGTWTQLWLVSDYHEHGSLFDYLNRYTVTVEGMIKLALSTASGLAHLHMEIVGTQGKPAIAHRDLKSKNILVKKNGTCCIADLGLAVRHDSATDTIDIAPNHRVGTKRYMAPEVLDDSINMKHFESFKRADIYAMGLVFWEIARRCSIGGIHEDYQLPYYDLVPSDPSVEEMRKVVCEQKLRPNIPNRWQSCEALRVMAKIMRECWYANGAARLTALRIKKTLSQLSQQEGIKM
Procedure: as §2

ACV-R1 (ALK2) = molecular target: T3, ACV-R1 (ALK2) (Homo sapiens, UniProt Q04771); experiment: radiometric protein kinase assay, ALK2; assay type: biochemical; conditions: [ATP] = 3 μM; Fig. 7B
T3 construct: purchased ProQinase GmbH (Freiburg, Germany); host or cells: bacteria (so in the source)
T3 sequence (Q04771 21-509): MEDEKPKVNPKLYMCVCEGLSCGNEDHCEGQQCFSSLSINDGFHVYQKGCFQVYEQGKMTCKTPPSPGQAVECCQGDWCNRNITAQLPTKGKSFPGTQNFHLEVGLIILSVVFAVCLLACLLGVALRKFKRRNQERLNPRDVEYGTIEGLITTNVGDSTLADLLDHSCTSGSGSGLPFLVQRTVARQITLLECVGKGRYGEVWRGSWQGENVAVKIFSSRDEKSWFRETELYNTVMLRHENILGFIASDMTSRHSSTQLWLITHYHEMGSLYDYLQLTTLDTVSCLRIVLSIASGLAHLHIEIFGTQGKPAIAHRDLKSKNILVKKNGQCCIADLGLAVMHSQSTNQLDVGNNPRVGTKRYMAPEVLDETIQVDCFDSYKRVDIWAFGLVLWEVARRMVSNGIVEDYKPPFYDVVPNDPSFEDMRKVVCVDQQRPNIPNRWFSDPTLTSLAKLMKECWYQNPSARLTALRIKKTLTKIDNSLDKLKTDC
Procedure: as §2

T1 sequence (Q9UM73 19-1620): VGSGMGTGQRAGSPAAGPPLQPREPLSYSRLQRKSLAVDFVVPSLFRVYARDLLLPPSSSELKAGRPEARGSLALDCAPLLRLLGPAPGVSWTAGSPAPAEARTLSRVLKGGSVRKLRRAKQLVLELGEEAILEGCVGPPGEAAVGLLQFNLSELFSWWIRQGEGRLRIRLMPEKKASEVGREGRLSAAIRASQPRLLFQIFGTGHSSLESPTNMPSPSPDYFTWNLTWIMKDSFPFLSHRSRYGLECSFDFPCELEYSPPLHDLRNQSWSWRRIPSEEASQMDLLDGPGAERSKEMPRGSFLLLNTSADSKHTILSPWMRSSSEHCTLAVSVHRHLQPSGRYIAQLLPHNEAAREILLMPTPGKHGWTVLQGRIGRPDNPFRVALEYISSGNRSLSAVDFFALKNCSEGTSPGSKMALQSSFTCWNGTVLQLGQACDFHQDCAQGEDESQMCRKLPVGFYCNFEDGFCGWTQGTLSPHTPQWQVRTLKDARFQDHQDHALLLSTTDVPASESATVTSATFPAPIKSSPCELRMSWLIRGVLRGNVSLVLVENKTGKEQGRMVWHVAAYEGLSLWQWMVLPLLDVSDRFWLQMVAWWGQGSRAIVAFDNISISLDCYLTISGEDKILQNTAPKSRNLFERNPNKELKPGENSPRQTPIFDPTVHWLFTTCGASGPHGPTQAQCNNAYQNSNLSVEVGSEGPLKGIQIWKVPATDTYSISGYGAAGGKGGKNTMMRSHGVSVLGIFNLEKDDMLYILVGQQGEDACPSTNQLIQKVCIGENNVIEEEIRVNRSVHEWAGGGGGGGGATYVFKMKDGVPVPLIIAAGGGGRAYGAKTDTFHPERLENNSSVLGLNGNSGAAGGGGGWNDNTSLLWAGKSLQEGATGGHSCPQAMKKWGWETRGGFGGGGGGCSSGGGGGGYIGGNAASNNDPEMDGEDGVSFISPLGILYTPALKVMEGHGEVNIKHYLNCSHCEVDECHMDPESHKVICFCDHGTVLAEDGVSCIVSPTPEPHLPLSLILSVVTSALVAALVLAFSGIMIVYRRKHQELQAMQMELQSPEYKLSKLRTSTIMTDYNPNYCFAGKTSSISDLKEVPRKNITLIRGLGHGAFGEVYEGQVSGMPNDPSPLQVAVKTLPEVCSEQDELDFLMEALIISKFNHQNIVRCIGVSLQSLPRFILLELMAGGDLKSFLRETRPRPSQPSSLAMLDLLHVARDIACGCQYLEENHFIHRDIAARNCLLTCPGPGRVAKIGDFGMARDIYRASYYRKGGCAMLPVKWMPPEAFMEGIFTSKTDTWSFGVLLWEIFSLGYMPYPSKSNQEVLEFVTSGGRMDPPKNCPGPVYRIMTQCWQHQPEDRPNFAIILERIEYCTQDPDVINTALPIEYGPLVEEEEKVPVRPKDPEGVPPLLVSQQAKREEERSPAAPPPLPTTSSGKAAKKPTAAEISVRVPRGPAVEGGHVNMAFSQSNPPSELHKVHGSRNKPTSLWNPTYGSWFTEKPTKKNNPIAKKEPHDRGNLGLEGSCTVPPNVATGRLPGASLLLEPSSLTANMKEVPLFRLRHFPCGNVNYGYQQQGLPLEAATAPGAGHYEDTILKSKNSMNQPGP

CC(=O)C1=C(O)C=C2Oc3c(C(N)=O)c(O)cc(O)c3[C@]2(C)C1=O [cercosporamide, Cercosporamide]
IC50 [1]: 10000 nM
effect on caALK6-induced SMAD1/5 phosphorylation (caALK6): inhibited SMAD1/5 phosphorylation
effect on BMP6-induced SMAD1/5 phosphorylation [2]: only minor inhibition
IC50 (TGFB-R1 (ALK5)): 290 nM
IC50 (ACV-R1 (ALK2)): 600 nM
